Type in all cases: cell-based, human
In one assay the test system is HER2. Description: Immunofluorescence of HER2 in MDA-MB-231 cells. The method, then:
Cells (MDA-MB-231, MDA-MB-468 and BTS-149) were grown until 70-80% density was reached. Then the growth medium was discarded and the cells were treated with trypsin and medium as described above. After the cells were detached from the surface, the 20 ml cell suspension (namely cells in medium and Trypsin) were transferred into 50 ml conical tubes and centrifuged at 300 g for 10 min in 4° C. Next, the supernatant was discarded and 2 ml fresh medium were added to the cell pellet. Then the cells were fluidized and 13 ml medium was added to the tubes, thereby suspending the cells in a total of 15 ml medium. The cells were counted and seeded at 10.000-15,000 cells/well on chamber slide in 1 ml growing medium. The chamber slide seeded with cells was placed in the hood for 1 hour and then transferred to the incubator for an overnight incubation under the above conditions. The following day the medium was aspirated from the cell chamber slides and discarded and 1 ml cell treatment medium supplemented with APC1 (at a final concentration of 100 or 250 μg/ml) or control (medium only). Medium was added to each one of the wells (aliquots of APC1 were used in order to avoid repeated freeze-thaw cycle). The cells were then incubated for 24-144 hours. […]

A further assay relates to estrogen receptor alpha. Description: Western blot analysis of estrogen receptor alpha expression in MDA-MB-231 cells. To be noted: APC1 250 μg/ml once a week for one week or twice a week for 3 or 4 weeks. An excerpt: Abbreviations: M, protein parker; c, control; h, hour; w, week.
In view of the results shown above, the expression level of estrogen receptor alpha was directly assayed.

The next assay deals with MDA-MB-468 cells. Description: Analysis of apoptosis in MDA-MB-468 cells with APC1 and Herceptin. The settings on record: Herceptin 12 μg/ml, APC1 250 μg/ml (FIG. 9). An excerpt:
Cells were examined for apoptosis or HER2 expression using FACS analysis. The HER2 antibody used was abcam ab16901. The marker Annexin (Enco) was used for assessment of apoptosis.

For “EKGAAFSPIYPRRK (C terminal peptide of KTPAF50) [APC1, polypeptide consisting of the 14 C-terminal amino acid residues of the peptide KTPAF50]”, the “HER2 expression by immunofluorescence” value with HER2 (single dose 250 μg/ml APC1, 48 hours, vs control cells) is “clear HER2 expression”. Besides, the “HER2 expression by immunofluorescence, multiple doses” value with HER2 (three doses of 250 μg/ml APC1, 144, 96 and 72 hours, vs single dose) is “enhanced”. For the same sequence, in the assay on estrogen receptor alpha, the “expression level of estrogen receptor alpha” value is “clear increase”. The level of apoptosis in the assay with MDA-MB-468 cells is reported as 15%.

Values taken from patent US12071488B2, “Method of sensitizing cancer cells to anti-cancer treatment” (TWO TO BIOTECH LTD., priority 2017, dated 2024).
